One compound from patent US11498930B2 (BLUERAY THERAPEUTICS (SHANGHAI) CO., LTD., priority 2018, dated 2022) can be followed below.

Test [1] deals with SHP2^E76A protein (Homo sapiens (Human), UniProt Q06124, E76A). In words: SHP2 enzyme activity inhibition experiment. It is filed as biochemical. The note with it: SHP2 enzyme activity, Tables 1.1 and 1.2; read-out: IC50. An outline of the steps:
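Compounds tested at 10 concentrations in 3-fold serial dilution. IC50 from a four-parameter Hill-slope nonlinear fit of enzyme activity versus concentration.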

The subject of test [2] is MOLM-13 cells. In words: MOLM-13 cell proliferation experiment. The note with it: Homo sapiens, MOLM-13, 72 h, MOLM-13 cell proliferation, 3 days, Tables 3.1 and 3.2; read-out: IC50. The test is classed as cell-based. The protocol:
After 3 days, 5 µL of CellTiter-Glo reagent (Promega, ZG7572) was added to each well, and the plates were kept at room temperature in the dark for 10 minutes. The […] was detected by Spectra max i3 (Molecular Devices). The relative growth rate of the treated cells was compared with that of DMSO control.

Test [3] relates to phosphorylation level of intracellular protein kinase (ERK) in MOLM13 cells. Briefly: Phosphorylated protein kinase (p-ERK) cell experiment (AlphaLISA). The note with it: Homo sapiens, MOLM-13; p-ERK, MOLM13 cells, 2 hours of cell treatment, Tables 2.1 and 2.2; read-out: IC50. It is filed as cell-based. A general note: Bead proximity is the source of the signal in Alpha formats.

Chain of SHP2^E76A protein (Q06124 whole entry E76A): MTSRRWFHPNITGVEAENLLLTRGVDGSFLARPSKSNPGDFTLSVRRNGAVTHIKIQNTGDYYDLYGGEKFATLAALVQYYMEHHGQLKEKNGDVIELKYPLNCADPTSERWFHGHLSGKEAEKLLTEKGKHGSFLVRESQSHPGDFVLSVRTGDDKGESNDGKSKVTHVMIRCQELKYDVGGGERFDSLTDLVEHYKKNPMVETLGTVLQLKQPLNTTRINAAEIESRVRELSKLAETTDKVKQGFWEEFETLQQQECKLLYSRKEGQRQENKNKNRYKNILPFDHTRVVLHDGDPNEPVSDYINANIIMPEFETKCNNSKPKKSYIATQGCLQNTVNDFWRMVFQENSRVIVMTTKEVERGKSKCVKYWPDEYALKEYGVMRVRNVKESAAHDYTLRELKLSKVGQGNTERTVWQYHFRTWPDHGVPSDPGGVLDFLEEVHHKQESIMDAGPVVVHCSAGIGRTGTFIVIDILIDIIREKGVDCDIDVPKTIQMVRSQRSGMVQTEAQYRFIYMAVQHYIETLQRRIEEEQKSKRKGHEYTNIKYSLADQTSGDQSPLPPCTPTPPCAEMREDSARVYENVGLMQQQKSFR

Usually IC50 stands for the midpoint of a concentration-inhibition curve. `N[C@@H]1COCC12CCN(c1ncc(Sc3cccc(Cl)c3Cl)c3ncnn13)CC2` [(S)-8-(8-((2,3-dichlorophenyl)thio)-[1,2,4]triazolo[1,5-c]pyrimidin-5-yl)-2-oxa-8-azaspiro[4.5]decan-4-amine]: the IC50 lay within 0.1 to 1 µM in test [1], 0.1 to 1 µM in test [2] and 1 to 10 µM in test [3].
